Measured values taken from patent publication US10414832B2, “Derivatives of sulfated polysaccharides, method of preparation, modification and use thereof” (Contipro a.s., priority 2015, dated 2019).

Columns and labels:
[1] = purchased from Sigma Aldrich; cited from earlier work
Solubility in DMSO = format: physicochemical; details: lyophilized acid form
Description: A 1% solution of chondroitin sulfate (500 mg, 1.1 mmol) in distilled water was prepared. The solution was cooled to 5° C. and 1.2 ml of Amberlite IR 120 Na(H^+) catex was added. The reaction mixture was stirred for 24 h at 5° C. The catex was filtered off, the product was frozen and lyophilized. Its solubility in DSMO was tested and found satisfactory.

3T3 fibroblasts = test: Viability tests of 3T3 fibroblasts (MTT method); format: cell-based; details: 3T3 cells, 10, 100, 500 and 1000 μg·mL^−1, 0, 24, 48, 72 hours
Description: FIG. 3 illustrates the results of the cell viability tests of 3T3 fibroblasts in α,β-unsaturated aldehyde of chondroitin sulfate (Mw=4×10^4 g/mol, DS=20%). The activation vs inhibition curve, expressed in %, with respect to the control in time T=0 h (100%). Evaluation by means of MTT method, six repetitions.
The tested substance, α,β-unsaturated aldehyde of chondroitin sulfate (DS=20%, Mw=40 kDa), was dissolved in a complete 3T3 medium. The solution was filtered via a 0.22 μm filter. The final test concentrations of the tested solution were 10, 100, 500, and 1000 μg·mL^−1. 3T3 cells of the density of 3000 cells per a well were inoculated into 96-well plates. Before the treatment, the cells were cultured for 24 hours in a complete medium. The cell viability was evaluated by spectrophotometry by means of 3-[4,5-dimethylthiazole-2-yl]-2,5-diphenyl tetrazolium bromide (MTT method) in the intervals of 0, 24, 48, 72 hours. The whole experiment was supplemented with a set of non-treated controls and blank samples. The measured optical density data were converted into percentage formulation related to the control in the time T0 hours (the ratio of the optical density of the treated sample with respect to the optical density of the non-treated control T0, multiplied by 100) and the standard error of the mean (SEM) was calculated. The results of the test are graphically presented at FIG. 3.

Row | Substance | solubility in water [1] [mg/mL] | further results
1 | sodium salt of dermatan sulfate | 5 | –
2 | Acid Form of Chondroitin Sulfate [Example 26] | – | solubility in DSMO (Solubility in DMSO): satisfactory
3 | α,β-unsaturated aldehyde of chondroitin sulfate | – | cytotoxicity (cell viability of 3T3 fibroblasts) (3T3 fibroblasts): not cytotoxic
4 | Lambda carrageenan | 10 | –
